Experimental data reported in ChEMBL document CHEMBL1201862, “PubChem BioAssay data set” (2004).
The source made the active and inactive calls.

Key:
Type in all cases: functional
[1] = biological target: T1, Sentrin-specific protease 8 (Homo sapiens, UniProt Q96LD8);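 note: luminescence read-out of SENP8 inhibition, dose-response confirmation following an ultra-high-throughput screen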
T1 sequence (Q96LD8 whole entry): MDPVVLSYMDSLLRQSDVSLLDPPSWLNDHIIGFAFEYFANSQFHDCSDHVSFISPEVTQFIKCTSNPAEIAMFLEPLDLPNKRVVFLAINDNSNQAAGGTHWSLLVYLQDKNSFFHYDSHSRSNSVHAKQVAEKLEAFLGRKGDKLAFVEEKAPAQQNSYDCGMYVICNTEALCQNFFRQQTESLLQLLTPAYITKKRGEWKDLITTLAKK

[2] = system: H4; experiment: Luminescence Cell-Based Dose Response HTS to Identify Activators of 5'UTR Stem-Loop Driven Prion Protein mRNA Translation in H4 Neuroglioblastoma Cells. [Related pubchem assays: 1829 (Project Summary), 1814 (Primary HTS)]; settings: Homo sapiens
[3] = biological target: T2, Insulin-degrading enzyme (Homo sapiens, UniProt P14735); experiment: activators of endogenous IDE in HEK cells, dose response, cell-based, fluorescence polarization (AID 588439)
T2 sequence (P14735 whole entry): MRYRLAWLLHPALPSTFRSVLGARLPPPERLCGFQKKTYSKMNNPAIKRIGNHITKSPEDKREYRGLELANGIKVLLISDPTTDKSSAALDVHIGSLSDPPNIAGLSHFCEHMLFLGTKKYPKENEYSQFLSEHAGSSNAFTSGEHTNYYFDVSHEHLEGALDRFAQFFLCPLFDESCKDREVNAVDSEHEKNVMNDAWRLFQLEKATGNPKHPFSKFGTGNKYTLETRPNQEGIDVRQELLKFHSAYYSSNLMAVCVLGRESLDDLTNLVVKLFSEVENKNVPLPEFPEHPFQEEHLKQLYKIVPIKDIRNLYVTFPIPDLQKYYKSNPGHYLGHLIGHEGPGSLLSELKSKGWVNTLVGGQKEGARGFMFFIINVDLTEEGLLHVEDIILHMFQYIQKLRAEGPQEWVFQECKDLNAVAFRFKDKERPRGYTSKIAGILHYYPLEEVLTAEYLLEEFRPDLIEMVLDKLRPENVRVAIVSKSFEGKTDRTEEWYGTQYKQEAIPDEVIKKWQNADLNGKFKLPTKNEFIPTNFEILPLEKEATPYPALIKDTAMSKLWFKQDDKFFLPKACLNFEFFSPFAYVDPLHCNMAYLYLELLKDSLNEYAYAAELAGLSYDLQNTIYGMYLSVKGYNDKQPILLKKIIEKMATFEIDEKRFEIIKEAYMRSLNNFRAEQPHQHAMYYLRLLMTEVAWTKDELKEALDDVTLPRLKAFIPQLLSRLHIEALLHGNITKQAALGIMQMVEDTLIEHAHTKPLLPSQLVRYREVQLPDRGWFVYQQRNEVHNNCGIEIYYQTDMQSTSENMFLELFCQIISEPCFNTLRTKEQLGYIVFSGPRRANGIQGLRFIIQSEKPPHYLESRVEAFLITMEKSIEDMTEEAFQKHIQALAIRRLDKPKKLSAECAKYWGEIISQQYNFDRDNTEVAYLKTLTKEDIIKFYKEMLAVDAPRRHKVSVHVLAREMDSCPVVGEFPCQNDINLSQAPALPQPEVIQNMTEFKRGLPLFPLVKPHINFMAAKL

[4] = biological target: Protein kinase C theta type (Homo sapiens, UniProt Q04759); experiment: Navigating the Kinome. Panel member name: PRKCQ
Sequence of Protein kinase C theta type (Q04759 whole entry): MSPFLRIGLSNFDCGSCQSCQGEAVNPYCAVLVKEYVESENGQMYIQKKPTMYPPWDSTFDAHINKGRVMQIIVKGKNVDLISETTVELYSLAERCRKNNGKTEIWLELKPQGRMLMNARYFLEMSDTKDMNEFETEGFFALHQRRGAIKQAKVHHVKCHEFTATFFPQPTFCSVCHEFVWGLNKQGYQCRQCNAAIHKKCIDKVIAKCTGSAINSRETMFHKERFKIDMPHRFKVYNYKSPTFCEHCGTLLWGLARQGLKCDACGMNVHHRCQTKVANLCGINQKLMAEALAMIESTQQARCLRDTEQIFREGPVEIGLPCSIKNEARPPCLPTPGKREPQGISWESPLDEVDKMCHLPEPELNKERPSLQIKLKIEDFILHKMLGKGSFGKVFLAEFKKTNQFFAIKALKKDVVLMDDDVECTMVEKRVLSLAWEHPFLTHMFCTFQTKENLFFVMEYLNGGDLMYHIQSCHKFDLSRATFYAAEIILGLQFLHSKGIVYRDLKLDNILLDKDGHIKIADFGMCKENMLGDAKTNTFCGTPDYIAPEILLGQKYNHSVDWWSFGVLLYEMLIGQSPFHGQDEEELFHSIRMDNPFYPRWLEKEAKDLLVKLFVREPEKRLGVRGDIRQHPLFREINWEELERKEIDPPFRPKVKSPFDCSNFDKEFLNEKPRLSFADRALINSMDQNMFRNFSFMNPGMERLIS

[5] = biological target: Serine/threonine-protein kinase D2 (Homo sapiens, UniProt Q9BZL6);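 note: measured against PRKD2 as one member of a kinome-wide kinase profiling panel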
[6] = biological target: Testis-specific serine/threonine-protein kinase 2 (Homo sapiens, UniProt Q96PF2);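 note: part of the Navigating the Kinome panel, target entry STK22B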
Sequence of Testis-specific serine/threonine-protein kinase 2 (Q96PF2 whole entry): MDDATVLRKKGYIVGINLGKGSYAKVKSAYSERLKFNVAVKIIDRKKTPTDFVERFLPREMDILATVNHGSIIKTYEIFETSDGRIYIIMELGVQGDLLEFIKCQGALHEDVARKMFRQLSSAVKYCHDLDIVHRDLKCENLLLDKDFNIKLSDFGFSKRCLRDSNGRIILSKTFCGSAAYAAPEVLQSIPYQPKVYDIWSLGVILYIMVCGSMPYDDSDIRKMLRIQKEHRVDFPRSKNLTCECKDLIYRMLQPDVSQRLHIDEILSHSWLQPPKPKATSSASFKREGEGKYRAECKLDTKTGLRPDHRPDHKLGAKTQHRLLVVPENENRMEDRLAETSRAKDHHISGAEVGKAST

[7] = biological target: MAP kinase-activated protein kinase 5 (Homo sapiens, UniProt Q8IW41);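 note: measured as one member of a kinome panel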
Sequence of MAP kinase-activated protein kinase 5 (Q8IW41 whole entry): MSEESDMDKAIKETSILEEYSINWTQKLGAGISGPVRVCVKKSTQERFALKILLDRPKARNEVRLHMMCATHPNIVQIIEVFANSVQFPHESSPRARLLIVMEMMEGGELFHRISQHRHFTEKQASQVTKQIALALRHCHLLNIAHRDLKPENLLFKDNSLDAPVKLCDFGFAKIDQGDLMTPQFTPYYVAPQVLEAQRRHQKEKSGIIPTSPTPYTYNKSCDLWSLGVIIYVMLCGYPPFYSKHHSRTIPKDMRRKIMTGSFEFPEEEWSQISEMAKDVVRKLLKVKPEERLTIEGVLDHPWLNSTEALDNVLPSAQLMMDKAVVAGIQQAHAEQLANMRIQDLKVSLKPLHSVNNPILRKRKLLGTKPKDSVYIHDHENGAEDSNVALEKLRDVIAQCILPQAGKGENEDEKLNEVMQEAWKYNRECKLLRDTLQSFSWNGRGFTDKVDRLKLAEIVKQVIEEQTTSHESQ

[8] = biological target: Fibroblast growth factor receptor 1 (Homo sapiens, UniProt P11362)
Sequence of Fibroblast growth factor receptor 1 (P11362 whole entry): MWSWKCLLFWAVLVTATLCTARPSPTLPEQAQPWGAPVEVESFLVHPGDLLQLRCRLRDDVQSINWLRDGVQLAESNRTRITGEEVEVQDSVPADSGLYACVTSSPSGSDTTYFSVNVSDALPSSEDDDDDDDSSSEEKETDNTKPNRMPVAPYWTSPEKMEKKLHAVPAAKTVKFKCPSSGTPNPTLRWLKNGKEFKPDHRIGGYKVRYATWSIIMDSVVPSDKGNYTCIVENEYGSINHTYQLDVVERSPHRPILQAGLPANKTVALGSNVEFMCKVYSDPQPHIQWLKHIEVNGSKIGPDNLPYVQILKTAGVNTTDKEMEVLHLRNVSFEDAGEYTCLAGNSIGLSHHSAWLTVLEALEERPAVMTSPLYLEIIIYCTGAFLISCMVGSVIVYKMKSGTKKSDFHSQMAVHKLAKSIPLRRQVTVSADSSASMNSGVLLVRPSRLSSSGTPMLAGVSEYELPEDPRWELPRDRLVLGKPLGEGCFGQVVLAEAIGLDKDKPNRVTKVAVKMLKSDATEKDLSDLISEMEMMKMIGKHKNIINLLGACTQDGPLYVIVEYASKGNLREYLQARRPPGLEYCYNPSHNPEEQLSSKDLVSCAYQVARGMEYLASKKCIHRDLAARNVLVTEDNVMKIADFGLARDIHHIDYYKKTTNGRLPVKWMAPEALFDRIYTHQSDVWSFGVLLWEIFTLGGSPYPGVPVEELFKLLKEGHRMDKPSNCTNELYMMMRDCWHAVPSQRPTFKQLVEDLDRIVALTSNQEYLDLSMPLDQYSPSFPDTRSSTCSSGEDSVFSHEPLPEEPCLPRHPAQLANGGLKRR

[9] = biological target: Tyrosine-protein kinase JAK3 (Homo sapiens, UniProt P52333)
[10] = biological target: Casein kinase I isoform gamma-1 (Homo sapiens, UniProt Q9HCP0);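 note: measured as the CSNK1G1 member of a kinome profiling panel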
[11] = biological target: Mitogen-activated protein kinase 9 (Homo sapiens, UniProt P45984);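 note: value from a kinome panel profiling assay, MAPK9 panel entry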
[12] = biological target: MAP/microtubule affinity-regulating kinase 3 (Homo sapiens, UniProt P27448);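 note: MARK3 affinity measured as one member of a kinome panel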
[13] = biological target: Mitogen-activated protein kinase kinase kinase 20 (Homo sapiens, UniProt Q9NYL2)
Sequence of Mitogen-activated protein kinase kinase kinase 20 (Q9NYL2 whole entry): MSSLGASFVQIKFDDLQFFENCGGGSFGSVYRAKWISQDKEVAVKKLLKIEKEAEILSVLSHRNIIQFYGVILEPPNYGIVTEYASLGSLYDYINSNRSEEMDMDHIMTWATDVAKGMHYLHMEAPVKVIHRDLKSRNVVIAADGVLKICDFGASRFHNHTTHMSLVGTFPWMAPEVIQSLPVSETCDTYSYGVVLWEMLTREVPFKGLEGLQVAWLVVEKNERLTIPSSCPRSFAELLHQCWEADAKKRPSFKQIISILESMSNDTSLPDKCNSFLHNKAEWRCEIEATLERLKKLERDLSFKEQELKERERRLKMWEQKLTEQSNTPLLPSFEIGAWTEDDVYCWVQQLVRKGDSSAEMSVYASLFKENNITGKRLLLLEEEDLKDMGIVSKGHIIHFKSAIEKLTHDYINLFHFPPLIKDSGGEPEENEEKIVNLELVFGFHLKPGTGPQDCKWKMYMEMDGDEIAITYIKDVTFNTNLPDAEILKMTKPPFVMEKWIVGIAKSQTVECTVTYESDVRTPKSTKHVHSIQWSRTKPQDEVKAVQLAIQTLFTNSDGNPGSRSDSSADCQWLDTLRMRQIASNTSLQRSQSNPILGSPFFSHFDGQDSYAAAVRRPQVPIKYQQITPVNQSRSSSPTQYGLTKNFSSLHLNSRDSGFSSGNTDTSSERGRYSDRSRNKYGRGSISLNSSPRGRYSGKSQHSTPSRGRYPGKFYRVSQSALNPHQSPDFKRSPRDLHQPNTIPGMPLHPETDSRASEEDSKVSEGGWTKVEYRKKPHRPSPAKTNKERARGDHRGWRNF

[14] = biological target: Glycogen synthase kinase-3 alpha (Homo sapiens, UniProt P49840);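 note: GSK3A result taken from a broad kinome-wide kinase panel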
[15] = biological target: Dual specificity tyrosine-phosphorylation-regulated kinase 3 (Homo sapiens, UniProt O43781);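 note: measured as one member of a broad kinase panel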
[16] = biological target: RAC-alpha serine/threonine-protein kinase (Homo sapiens, UniProt P31749);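 note: AKT1 affinity measured as one member of a kinome-wide kinase profiling panel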
[17] = biological target: Glycogen synthase kinase-3 beta (Homo sapiens, UniProt P49841);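 note: value comes from a broad kinome profiling panel, with GSK3B as the panel member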
[18] = biological target: BDNF/NT-3 growth factors receptor (Homo sapiens, UniProt Q16620);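 note: NTRK2 measured as one member of a broad kinome-wide kinase profiling panel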
Sequence of BDNF/NT-3 growth factors receptor (Q16620 whole entry): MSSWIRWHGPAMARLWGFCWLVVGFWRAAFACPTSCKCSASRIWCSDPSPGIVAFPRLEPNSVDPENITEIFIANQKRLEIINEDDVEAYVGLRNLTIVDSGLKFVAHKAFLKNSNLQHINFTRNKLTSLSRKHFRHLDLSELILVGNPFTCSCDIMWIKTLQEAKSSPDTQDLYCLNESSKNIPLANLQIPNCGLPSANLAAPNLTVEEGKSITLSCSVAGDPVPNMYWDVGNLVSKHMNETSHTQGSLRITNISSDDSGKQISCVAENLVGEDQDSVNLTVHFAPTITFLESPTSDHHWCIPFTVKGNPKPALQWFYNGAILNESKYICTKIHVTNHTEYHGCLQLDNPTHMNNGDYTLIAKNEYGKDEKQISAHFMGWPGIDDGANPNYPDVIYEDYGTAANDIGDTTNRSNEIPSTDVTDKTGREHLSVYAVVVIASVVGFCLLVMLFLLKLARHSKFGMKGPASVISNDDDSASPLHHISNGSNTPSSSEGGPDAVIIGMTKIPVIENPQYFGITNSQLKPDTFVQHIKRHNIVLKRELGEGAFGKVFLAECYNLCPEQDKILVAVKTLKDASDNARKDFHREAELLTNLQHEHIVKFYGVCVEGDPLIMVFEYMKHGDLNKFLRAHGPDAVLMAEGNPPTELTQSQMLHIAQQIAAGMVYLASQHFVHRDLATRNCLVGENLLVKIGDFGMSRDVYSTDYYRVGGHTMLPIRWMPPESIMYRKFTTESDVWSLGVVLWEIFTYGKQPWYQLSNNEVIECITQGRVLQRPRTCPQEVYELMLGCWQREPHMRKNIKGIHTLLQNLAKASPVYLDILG

[19] = biological target: Dual specificity protein kinase CLK4 (Homo sapiens, UniProt Q9HAZ1)
[20] = biological target: Lymphokine-activated killer T-cell-originated protein kinase (Homo sapiens, UniProt Q96KB5);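 note: value comes from a kinase panel screen in which TOPK was one of the panel members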
Sequence of Lymphokine-activated killer T-cell-originated protein kinase (Q96KB5 whole entry): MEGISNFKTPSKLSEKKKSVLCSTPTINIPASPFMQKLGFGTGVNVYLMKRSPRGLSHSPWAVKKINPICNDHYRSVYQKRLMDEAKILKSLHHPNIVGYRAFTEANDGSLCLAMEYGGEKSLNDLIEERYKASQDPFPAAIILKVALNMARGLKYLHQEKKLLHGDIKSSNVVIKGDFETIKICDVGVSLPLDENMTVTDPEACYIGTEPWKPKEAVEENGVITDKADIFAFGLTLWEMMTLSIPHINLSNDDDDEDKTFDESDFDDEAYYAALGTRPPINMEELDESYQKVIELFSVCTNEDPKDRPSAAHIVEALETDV

[21] = biological target: Inhibitor of nuclear factor kappa-B kinase subunit epsilon (Homo sapiens, UniProt Q14164); experiment: Navigating the Kinome. Panel member name: IKBKE
Sequence of Inhibitor of nuclear factor kappa-B kinase subunit epsilon (Q14164 whole entry): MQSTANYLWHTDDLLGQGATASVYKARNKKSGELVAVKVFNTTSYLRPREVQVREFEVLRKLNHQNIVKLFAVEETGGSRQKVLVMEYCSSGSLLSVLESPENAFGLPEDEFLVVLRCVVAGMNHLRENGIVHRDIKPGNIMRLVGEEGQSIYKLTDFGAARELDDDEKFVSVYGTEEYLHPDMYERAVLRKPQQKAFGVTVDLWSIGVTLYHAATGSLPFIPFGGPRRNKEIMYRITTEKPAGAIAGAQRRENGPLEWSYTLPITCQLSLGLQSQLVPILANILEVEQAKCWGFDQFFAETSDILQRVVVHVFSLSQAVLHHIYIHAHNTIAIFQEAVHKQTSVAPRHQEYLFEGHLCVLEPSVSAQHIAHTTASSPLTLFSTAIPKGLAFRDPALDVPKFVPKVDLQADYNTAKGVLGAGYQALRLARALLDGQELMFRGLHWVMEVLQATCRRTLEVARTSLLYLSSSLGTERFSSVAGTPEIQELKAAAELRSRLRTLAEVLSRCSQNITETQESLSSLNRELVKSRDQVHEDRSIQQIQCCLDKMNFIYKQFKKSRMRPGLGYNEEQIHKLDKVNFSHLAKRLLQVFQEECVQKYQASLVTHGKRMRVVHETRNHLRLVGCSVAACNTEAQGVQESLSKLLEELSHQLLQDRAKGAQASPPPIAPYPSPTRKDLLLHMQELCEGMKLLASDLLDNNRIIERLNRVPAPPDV

For `CCC(C)n1c(NC(=O)c2ccccc2)c(C#N)c2nc3ccccc3nc21` (configuration not stated), the IC50 [1] was 2.24 µM (active).
`CCN1/C(=C\c2ccc3ccccc3[n+]2CC)Sc2cc(C)ccc21` was tested, and the EC50 [2] was > 120 µM (not active).
With `CCCCCCCCCCOC(=O)C[n+]1c(COc2ccc(C)cc2)n(C)c2ccccc21` the EC50 [3] was > 6.08 µM (active).
`O=C(CCl)Oc1ccc2occ(C(=O)c3cccs3)c2c1` was tested, and the IC50 [1] was 38.2 µM (active).
`CN1CCN(c2nc(C3=C(c4c[nH]c5ccccc45)C(=O)NC3=O)c3ccccc3n2)CC1` [SOTRASTAURIN] was tested, and the Ki [4] was 0.000631 µM (active), the Ki [5] was > 10 µM (inactive) and the Ki [6] was > 1.58 µM (inactive). For the same compound, the Ki [7] was > 1.58 µM (inactive), the Ki [8] was > 2.51 µM (inactive) and the Ki [9] was 0.631 µM (active). The Ki [10] was > 6.31 µM (inactive), the Ki [11] was > 3.98 µM (inactive) and the Ki [12] was 1 µM (active). The Ki [13] was > 7.94 µM (inactive), the Ki [14] was 0.158 µM (active) and the Ki [15] was 6.31 µM (active). For the same compound, the Ki [16] was 0.501 µM (active), the Ki [17] was 0.2 µM (active) and the Ki [18] was > 3.98 µM (inactive). For the same compound, the Ki [19] was > 5.01 µM (inactive), the Ki [20] was > 10 µM (inactive) and the Ki [21] was > 3.16 µM (inactive).
